Assay results as given in US11926580B2, “Hydropersulfide precursors” (THE JOHNS HOPKINS UNIVERSITY, priority 2018, dated 2024).

Tests used:
[1] = Kinetics of RSSH generation by 1H NMR with NEM trapping; type: physicochemical; settings: pH 7.4 buffer with 20% MeOD, pH 7.4; read-out: half-life of precursor
[2] = Decomposition of precursor at pH 6 and pH 8.5; type: physicochemical
Source text: Based on the clean formation of hydropersulfide and aryl cyanamide during decomposition of 4d-h, the general mechanism shown in Scheme 5 is proposed. Neutralization of S-alkyl-thioisothiourea 7 (or its resonance partner 7a) occurs at pH 7.4 to produce a neutral species 8 and/or 8a, which can further undergo an elimination reaction to produce RSSH and aryl cyanamide. The elimination reaction can be initiated by either donation of the imine-nitrogen lone pair of 8 to form aryl cyanamide and RSSH (Scheme 5, eq. 2) or deprotonation of the arylamino-nitrogen proton to form RSSH and an aryl carbodiimide, which can further undergo tautomerization to afford the aryl cyanamide (Scheme 5, eq. 3). Alternately, an elimination reaction can be initiated by donation of the nitrogen lone pair of intermediate 8a to produce RSSH and aryl carbodiimide (Scheme 5, eq. 1). The decomposition of precursor 4d was examined at pH 6 and pH 8.5. […] In addition, the thermodynamic stability of the aryl cyanamide produced could contribute to the observed rate of RSSH release.

cardiomyocyte H9c2 cells = experiment: Cytotoxicity / cell viability assay with Cell Counting Kit-8; type: cell-based; settings: 50 μM, 24 h, CCK-8
Description: FIGS. 6a and 6b provide graphs of (a) the cell viability of cardiomyocyte H9c2 cells following incubation of the RSSH precursor 4d (50 μM) and phenylcynamide (200 μM) for 24 h; and (b) the cytoprotective effects of the RSSH precursor 4d observed following pretreatment of H9c2 cells with either 4d (50 μM) or phenylcynamide (200 μM) for 2 h, followed by hydrogen peroxide (200 μM) treatment for 2 h. Quantification of cell viability was carried out using Cell Counting Kit-8 (CCK-8). Results are expressed as the mean±SEM (n=6).
The cytotoxicity and impact on cell viability of the hydropersulfide (RSSH) precursor 4d have been examined using the cardiomyocyte H9C2 cell line and Cell Counting Kit-8 (CCK-8). A cell viability assay reveled that 4d was not cytotoxic at 50 μM ([…]).

[3] = UPLC-MS analysis of RSSH trapping with N-ethylmaleimide; type: physicochemical; settings: UPLC-MS
Description: FIGS. 2a and 2b provide graphs of (a) UPLC-MS chromatograms of RSSH generation from 4d (200 μM) in the presence of NEM (4 mM) incubated in pH 7.4 ammonium bicarbonate (100 mM) with DTPA (100 μM) at 37° C. A peak at 3.7 min corresponding to N-ethylmaleamic acid (NEMA), derived from NEM hydrolysis, was observed under these conditions (see SI); (b) MS spectrum (ESI+ mode) of the product eluting at 5.06 min corresponding to 5a with m/z 349.0885 (expected m/z 349.0886).
FIG. 5 provides a graph of UPLC-MS chromatograms of RSSH generation from compound 1 (1 mM) in the presence of NEM (5 mM) incubated in pH 7.4 ammonium bicarbonate buffer containing DTPA (100 μM) for 30 min at 37° C. The asterisk indicates the methyl ester analogue of dialkyl trisulfide 2, which was also formed due to the presence of minor amount of methyl ester analogue of 1. A peak at 3.7 min corresponding to N-ethylmaleamic acid (NEMA), derived from NEM hydrolysis, was observed under these conditions.
RSSH trapping in the presence of N-ethylmaleimide (NEM) was carried out with a Waters Acquity/Xevo-G2 UPLC-MS system equipped with an ACQUITY UPLC BEH C18 column (2.1 mm×50 mm, 1.7 μm). Typically, RSSH precursor (1 eq) was incubated with NEM (5 to 20 eq) in freshly prepared pH 7 4 ammonium bicarbonate buffer (100 mM) containing DTPA (100 μM) at 37° C. An aliquot of the reaction mixture (300 μL) was withdrawn at specified time points, quenched with 0.25% formic acid (300 μL), and filtered through a 0.22 μm filter. The samples were then loaded into vials in an autosampler maintained at 4° C. and analyzed using UPLC-MS as follows: Mobile phase: 0-1 min 90% water+0% ACN+10% formic acid (0.1%); 1-7.5 min gradient up to 10% water+80% ACN+10% formic acid (0.1%); 7.5-8.4 min 10% water+80% ACN+10% formic acid (0.1%); 8.4-8.5 min gradient up to 90% water+0% ACN+10% formic acid (0.1%), 8.5-10 min 90% water+0% ACN+10% formic acid (0.1%). Flow rate=0.3 mL min^−1. The mass signals for products of RSSH trapping with NEM were obtained via deconvolution using MassLynx 4.1 software.
To a solution of NEM (5 mM) in pH 7 4 ammonium bicarbonate (100 mM) with DTPA (100 μM) in a 20-mL scintillation vial, hydropersulfide precursor 1 (1 mM, total reaction volume 3 mL) was added. The resulting mixture was incubated at 37° C. for 30 min. An aliquot of 300 μL reaction mixture was withdrawn, quenched with 300 μL of formic acid (0.25%) and analyzed using UPLC-MS.

In the case of `CC(=O)NC(C(=O)O)C(C)(C)SSC(=N)Nc1ccccc1.Cl` (stereo not shown) [Precursor 4d, ((1-acetamido-1-carboxy-2-methylpropan-2-yl)disulfaneyl)(phenylamino)methaniminium chloride], the melting point is reported as 155 to 157 °C, the half-life [1] is reported as 4.3 min and the decomposition rate ([2]; pH 6 (lower pH)) is reported as “substantially slowed”. The decomposition rate ([2]; pH 8.5 (higher pH)) was “increased”, the “cytotoxicity (cell viability)” value (cardiomyocyte H9c2 cells) was “not cytotoxic” and the “RSSH generation (RSS-NEM adduct formation)” value ([3]; NEM trap, pH 7.4 buffer, 37° C.) was “clean conversion of 4d to the RSS-NEM adduct 5a”. The “phenyl cyanamide yield from precursor decomposition” value ([3]; NEM, pH 7.4, 37° C.) was 94%.
